Data published in patent publication US20040266794A1, “Pramipexole for the reduction of excessive food intake for children” (Boehringer Ingelheim International GmbH, priority 2003, published 2004).
Where two headings read alike, the source gives them in different places.

Key:
mice (Strain: C57BL/6) [1] = details: C57BL/6 mice fasted 24 hours; single application given on successive days, 2.5 mg/kg of body weight s.c.; food consumption over 4 days; vs physiological saline; FIG. 1
Protocol: Test method by single administration:
(§1) 10 mice (Strain: C57BL/6) were deprived of food for 24 hours while being given free access to drinking water.
20 minutes before the end of the fasting period pramipexol was administered (2.5 mg/kg of body weight s.c.). The control group, also 10 mice, were given physiological saline solution, the solvent used for pramipexol. Then the animals were offered food and the food consumption over 4 days in 30 minute cycles was measured.

mice (Strain: C57BL/6) [2] = system: mice (Strain: C57BL/6)
Protocol: as §1

Compound: CCCN[C@H]1CCc2nc(N)sc2C1 [Pramipexol]
- food intake (mice (Strain: C57BL/6) [1]): did not significantly reduce food intake
- food intake (mice (Strain: C57BL/6) [2]; C57BL/6 mice fasted 24 hours, continuous administration by alzet Mini-osmotic pump s.c., 2.5 mg of pramipexol/24 hours, measured for 4 days, vs physiological saline, FIG. 1): permanent, statistically highly significant inhibition in food intake
- change in weight (mice (Strain: C57BL/6) [2]; C57BL/6 mice, continuous (long term) administration by osmotic pump s.c., measured daily over 22 days, administration ending after 14 days, FIG. 2): permanent weight reduction was observed which was statistically highly significant even after the pramipexol treatment had ended
